In patent US11008311B2, “Potassium salt of benzimidazole compound and preparation method therefor, composition and application thereof” (WUHAN LL SCIENCE AND TECHNOLOGY DEVELOPMENT CO., LTD., priority 2016, dated 2021):
In brackets after ≈: the same amount, converted by molar mass.

What was measured:
[1] = tested on: spontaneously hypertensive rats; assay: Antihypertensive efficacy test in spontaneously hypertensive rats (systolic blood pressure and heart rate by implanted blood pressure sensor); type: in vivo, rat; settings: SHR, intragastric, 1 mg/kg as azilsartan; for Change in heart rate / Changes in systolic blood pressure: mean ± standard error
Procedure: 12-week-old spontaneously hypertensive rats (hereinafter referred to as SHR, purchased from Beijing Vital River Laboratory Animal Technology Co., Ltd.) were anesthetized with 2.5% sodium pentobarbital for intraperitoneal injection. The blood pressure sensing catheter of a blood pressure implant was inserted into the abdominal aorta, the implant was fixed to the abdominal wall, and the postoperative daily care was performed after suturing. Animals with systolic blood pressure exceeding 160 mmHg were selected into a total of 3 groups with 8 animals in each group. The control group was given 0.5% CMC-Na (sodium carboxymethylcellulose); in the OR01019 group and the QR01019K group, the compounds were dissolved in 0.5% CMC-Na, and the doses were all administered at an effective dose of 1 mg/kg of azilsartan with an administration volume of 4 mL/kg by intragastric administration. The systolic blood pressure and heart rate of the animals before the administration were used as reference values, and the changes of systolic blood pressure and heart rate of SHR at each time point before and after administration were compared, in which the systolic blood pressure and heart rate of SHR were measured three times at each time point and then averaged.

[2] = Determination of equilibrium solubility; type: physicochemical; settings: for solubility thermodynamic at 24 h: 37 °C, thermodynamic from solid, 37±2° C., based on azilsartan
[3] = before administration (reference value)
[4] = aqueous buffer, pH 4.5 (acetate buffer)
[5] = aqueous buffer, pH 6.8 (phosphate buffer)
[6] = aqueous buffer, pH 7.8 (phosphate buffer)
[7] = simulated gastric fluid, pH 1.0 (hydrochloric acid solution)

SMILES	Change in heart rate ([1]; 1 hour after administration)	Changes in systolic blood pressure ([1]; 1 hour after administration)	Change in heart rate ([1]; 3 hours after administration)	Changes in systolic blood pressure ([1]; 3 hours after administration)	Change in heart rate ([1]; 5 hours after administration)	Changes in systolic blood pressure ([1]; 5 hours after administration)	Change in heart rate ([1]; 7 hours after administration)	Changes in systolic blood pressure ([1]; 7 hours after administration)	Change in heart rate ([1]; 10 hours after administration)	Changes in systolic blood pressure ([1]; 10 hours after administration)	Change in heart rate ([1]; 24 hours after administration)	Changes in systolic blood pressure ([1]; 24 hours after administration)	Change in heart rate [1, 3]	Changes in systolic blood pressure [1, 3]	solubility thermodynamic at 24 h [2, 4]	solubility thermodynamic at 24 h [2, 5]	solubility thermodynamic at 24 h [2, 6]	solubility thermodynamic at 24 h [2, 7]	solubility thermodynamic at 24 h ([2]; Pure water)	other results
CCOc1nc2cccc(C(=O)OC(C)OC(=O)OCc3nc(C)c(C)nc3C)c2n1Cc1ccc(-c2ccccc2-c2noc(=O)[nH]2)cc1 (centres unmarked) [QR01019, reference compound]	−3.4 ± 2.6 times/minute	−4.9 ± 4.8 mmHg	−2.33 ± 2.6 times/minute	−22.0 ± 3.6 mmHg	−6.5 ± 2.8 times/minute	−30.5 ± 3.5 mmHg	−6.2 ± 3.0 times/minute	−38.8 ± 2.3 mmHg	−12.3 ± 2.8 times/minute	−33.0 ± 1.7 mmHg	−6.7 ± 2.6 times/minute	−10.2 ± 2.1 mmHg	0.0 ± 0.0 times/minute	0.0 ± 0.0 mmHg	0.06 µg/mL (≈ 0.0884 µM)	1.6 µg/mL (≈ 2.36 µM)	13.6 µg/mL (≈ 20 µM)	2.01 µg/mL (≈ 2.96 µM)	0.74 µg/mL (≈ 1.09 µM)	–
CCOc1nc2cccc(C(=O)OC(C)OC(=O)OCc3nc(C)c(C)nc3C)c2n1Cc1ccc(-c2ccccc2-c2noc(=O)[n-]2)cc1.[K+] (centres unmarked) [QR01019K]	−3.6 ± 2.4 times/minute	−7.0 ± 3.4 mmHg	−5.0 ± 2.5 times/minute	−34.3 ± 1.9 mmHg	−10.1 ± 3.0 times/minute	−46.5 ± 2.5 mmHg	−17.5 ± 3.0 times/minute	−49.4 ± 4.1 mmHg	−25.4 ± 2.4 times/minute	−45.3 ± 3.3 mmHg	−28.6 ± 8 times/minute	−25.9 ± 3.4 mmHg	0.0 ± 0.0 times/minute	0.0 ± 0.0 mmHg	2.3 µg/mL	25.9 µg/mL	400 µg/mL	18.7 µg/mL	542 µg/mL	antihypertensive effect compared with QR01019 (in words) [1]: more potent and longer-lasting antihypertensive effect than QR01019; effect of reducing heart rate compared with QR01019 (in words) [1]: more potent and longer-lasting effect of reducing heart rate than QR01019; concentrations in acidic and neutral media compared with QR01019 (in words) ([2]; equilibrium solubility, Table 5): much higher than QR01019
